From patent US5646188A, “Polyamine derivatives of 1-aminoindan” (priority 1995, dated 1997)
Like-named read-outs stand apart in the source and are kept apart here.

What was measured:
[1] = system: Cultures of Dissociated Neonatal Rat Cerebellum; test: Reversal of NMDA Induced Cell Death in cultures of dissociated neonatal rat cerebellum; type: cell-based; settings: for PERCENT PROTECTION: cell survival minus the NMDA effect (30%); for viability at 0.005 µM: 0.005 μM + NMDA (1 mM, 3 hours); for viability at 0.01 µM: 0.010 μM + NMDA (1 mM, 3 hours); for viability at 0.1 µM: 0.100 μM + NMDA (1 mM, 3 hours)
Method: (§1) The cerebellum was aseptically dissociated from 6 or 7-day old rat pups and placed in a 15 ml sterile plastic conical tube containing 3 ml of Dulbecco's modified Eagle's medium (DMEM) with a high glucose concentration ([…]) and 2 mM (v/v) L-glutamine and an antibiotic antimitotic mixture. The cerebella were then dissociated after 20-25 passages through a sterile 13 gauge, 10 cm long stainless steel needle attached to a 5 ml syringe with an inserted 45 micrometer pore nylon sieve. The dissociated cells were centrifuged at 200 g for 5 minutes.
Cells were plated at a density of 200/mm^2 on poly-L-lysine coated surfaces. […] The plated cells were covered with enriched medium and incubated at 37° C. in an atmosphere of 5% CO2 in air and 97% humidity. […] Each test compound was tested in duplicate. Toxic-dose response was determined for each compound over a range from 0.005-1000 micromole. Four groups were run in each set of experiments;
I. Control, consisting of enriched media alone,
II. N-methyl-D-aspartate (NMDA, 1 mM for 3 hours) as the cytotoxic challenge,
III. Test compound plus NMDA, and
IV. Positive control, spermine, spermidine or putrescine (0.01 micromoles) plus NMDA.
Surviving cells in Culture are measured relative to control (100%) as described above. Percent protection is the Cell Survival for the test compound minus the NMDA effect. […] The Effective Protection was calculated as the percent of the Percent Protection (X) divided by the maximal protection value (e.g. X×100/70).

In Vitro Cell Toxicity = settings: rat, cerebellum cell culture
Method: as §1, with “minutes. […] Cell viability was determined by the tryptan blue exclusion test.” for “minutes.”
Cells were plated at a density of 200/mm^2 on poly-L-lysine coated surfaces. Poly-L-lysine coated glass coverslips were prepared at least one hour in advance of plating by immersing sterile coverslips in sterile distilled water solution containing 15 microgram/ml poly-L-lysine, and washing in sterile water just prior. to use. […] After three days in culture, the media was replaced with media containing the desired test compound. Each test compound was tested in duplicate. Toxic-dose response was determined for each compound over a range from 0.005-1000 micromole. Four groups were run in each set of experiments;
Nerve cell survival was evaluated by phase contrast microscopy and tryptan blue staining after 24 hours.
Toxic dose-response curves were compiled using the protocol described above.

[2] = system: pyramidal neurons throughout the CA1 layer of the anterior hippocampus; test: Global Brain Ischemia In Gerbils; type: in vivo, mongolian gerbils; settings: Meriones unguiculatus, Pyramidal neuron, 336 h, read-out: PERCENT PROTECTION
Method: Male mongolian gerbils, aged 2.5-5 months, housed 4-8 in a cage, were supplied freely with food and water and maintained at 24° C. with a 12 hour day/night cycle.
For surgery the animals were anesthetized with halothane (1.5% in 100% O2) and the common carotid arteries exposed bilaterally through a midline ventral neck incision. Each artery was clamped for 5 minutes with aneurysm clips to produce global brain ischemia. The anesthesia was discontinued upon clamping. After 5 minutes the clamps were removed and the wound closed with skin clips.
For treatment, the test compound or vehicle was injected intra-peritoneally(ip) in a volume of 50 microlitres of solvent per 10 g body weight. The first injection was given two minutes after clamp removal, and thereafter daily for the next 2 post-operative days (total of 3 injections).
Seven groups each of 4-8 animals were compared:
I. Control; (sham- or unoperated and saline treated),
II. Vehicle treated, unoperated (when solvent is other than saline),
III. Ischemia--untreated or saline treated),
IV. Ischemia--vehicle treated (when solvent is other than saline),
V. Ischemia--Test compound treated, one sub-group per concentration tested,
VI. Ischemia and pentobarbital (40 mg/kg) as positive control).
Analysis of neuronal damage was performed 14 days post-ischemia by counting pyramidal neurons throughout the CA1 layer of the anterior hippocampus in […] thick (paraffin) coronal brain sections stained with hematoxylin and erosin.
Percent Protection values represent the fraction of hippocampi protected from ischemia in a group of animals treated with the stated dose of compound.

[3] = system: ischemia induced nerve cell death; settings: gerbils; Gilad G et al.; cited from earlier work
[4] = positive control, 0.01 micromoles + NMDA
[5] = Rattus norvegicus, 24 hours, read-out: SURVIVING CELL IN CULTURE (relative to control, 100%)
[6] = ip, 1.0 mg/kg ip, 3 daily injections, 14 days post-ischemia, fraction of hippocampi protected
[7] = ip, 10.0 mg/kg ip, 3 daily injections, 14 days post-ischemia, fraction of hippocampi protected

SMILES | CC50 at 24 h (In Vitro Cell Toxicity) [nM] | responders at 1 mg/kg ([2]; ip) [%] | PERCENT PROTECTION ([1]; 0.005 μM + NMDA) [%] | PERCENT PROTECTION ([1]; 0.010 μM + NMDA) [%] | viability at 0.005 µM [1, 5] [%] | viability at 0.01 µM [1, 5] [%] | responders at 10 mg/kg [2, 7] [%] | other results
NCCCNCCCCNCCCN [Spermine, spermine, reference compound] | 2000 |  |  |  |  |  |  | PERCENT PROTECTION [1, 4]: 38%; responders at 10 mg/kg ([2]; ip): 60%; protecting against ischemia induced nerve cell death [3]: activity
CCCC(C)C1(CC)C(=O)NC(=O)NC1=O (stereo not shown) [Pentobarbital, pentobarbital, reference compound] |  |  |  |  |  |  |  | responders at 40 mg/kg ([2]; ip): 87.5%
N[C@H]1CCc2ccccc21 [(S)-1-aminoindan, reference compound] |  | 50 |  |  |  |  |  | responders at 0.1 mg/kg ([2]; ip): 0%; responders at 10 mg/kg ([2]; ip): 75%
NCCCNCCCCNCCCNC1CCc2ccccc21 (stereo not shown) [Compound 2721] | 1000 |  | -2 | -4 | 28 | 26 | 67 | responders at 1 mg/kg [2, 6]: 12%
NCCCCNCCCNCCCCNC1CCc2ccccc21 (stereo not shown) [Compound 2725] | 20000 |  | 42 | 8 | 72 | 38 | 25 | PERCENT PROTECTION ([1]; 0.100 μM + NMDA): 2%; viability at 0.1 µM [1, 5]: 32%; responders at 1 mg/kg [2, 6]: 0%
NCCCCN(CCCCN)C1CCCc2ccccc21 (stereo not shown) [Compound 2728, N,N-di(4-amino-n-butyl)-1-amino-1,2,3,4-tetrahydronaphthalene] | 250 | 20 | -10 | 56 | 20 | 86 |  | 
N[C@@H]1C[C@H](N)c2ccccc21 [Compound 2715, cis 1,3-diaminoindan] | 10000 | 75 | 19 |  | 49 |  | 50 | PERCENT PROTECTION ([1]; 0.100 μM + NMDA): 12%; PERCENT PROTECTION ([1]; 1.000 μM + NMDA): 2%; viability at 0.1 µM [1, 5]: 42%; viability at 1 µM ([1]; Rattus norvegicus, 1.000 μM + NMDA (1 mM, 3 hours), 24 hours, read-out: SURVIVING CELL IN CULTURE (relative to control, 100%)): 32%
NCCCCN [Putrescine, putrescine, reference compound] | 300000 |  |  |  |  |  |  | PERCENT PROTECTION [1, 4]: 0%; responders at 10 mg/kg ([2]; 10.0 mg/kg ip, 3 daily injections, 14 days post-ischemia, fraction of hippocampi protected): 41%; protecting against ischemia induced nerve cell death [3]: activity
NCCCCN(CCCCN)[C@H]1CCc2ccccc21 [Compound 2727, (S)-N,N-di(4-amino-n-butyl)-1-aminoindan] | 400 |  | 0 | 25 | 30 | 55 | 28.5 | 
